Measurements from patent US12421276B2 (priority 2016, dated 2025).
Several values for one entry are separate records, joined by “and”; a condition that tells them apart may be missing. Equal entries are not always repeated. Where two headings read alike, the source gives them in different places.

What was measured:
[1] = Metabolic stability in simulated intestinal fluid (SIF), pH 6.8, with or without pancreatin; format: in vitro ADME; settings: 5 μM, 37° C.
Protocol: (§1) Metabolic Stability in SIF and SGF (Simulated Intestinal and Gastric Fluid)
Buffer 3=SIF without enzyme
Buffer 4=SIF with 1% pancreatin
(§2) SIF was prepared freshly with 8.7 mM NaOH, 28.65 mM NaH2PO4, 105.85 mM NaCl, with a final pH of 6.8. SGF was prepared freshly with 34.2 mM NaCl, with a final pH of 1.2. Enzymes such as pepsin or pancreatin were added to some buffers. Human and rat plasma (K2 EDTA) were purchased from BioreclamationIVT.
(§3) Compounds were dissolved as 1.5 mM DMSO stocks. Compounds were transferred to SIF, SGF, or plasma at 5 μM on a 96-well deep well plate. After mixing, samples were transferred to several 96-well plates (25 μL/well), and incubated at 37° C. The extent of metabolism was calculated as the disappearance of the test compound, compared to the 0-min control reaction incubations. Candesartan Cilexetil and omeprazole were included as positive controls for SIF and SGF, respectively, to verify assay performance.
(§4) At each of the time points, 150 μL of quench solution (100% acetonitrile with 0.1% formic acid) with internal standard (bucetin for positive ESI mode and warfarin for negative ESI mode) was transferred to each well. Plates were sealed and centrifuged at 4° C. for 15 minutes at 4000 rpm. The supernatant was transferred to fresh plates for LC/MS/MS analysis.
(§5) Elution conditions are detailed in the table below.
(§6) Initial rates of the clearance of test compounds were calculated using linear regression of semi-log plot of % remaining of compounds versus time. The elimination rate constant (equals to −slope) of the linear regression was then used to determine t½ values.

Caco-2 cells = experiment: Caco-2 permeability study with or without P-gp inhibitor GF120918; settings: for Caco-2 Cells Permeability Recovery Rate: 1 hr, pH 7.4
Protocol: Buffer=HBSS, pH 7.4 with 5 mM HEPES
Caco-2 cell plates were obtained commercially and were maintained for 21 days at 37° C. with 5% CO2. Cells were washed with Hank's Balanced Salt Solution (HBSS) 30 min before starting the experiment. Test compound solutions were prepared by diluting from DMSO stock into HBSS buffer in the presence or absence of 10 μM of P-gp inhibitor GF120918. The final DMSO concentration is 0.2%. Prior to each experiment, cell monolayer integrity was verified by transendothelial electrical resistance (TEER). Transport experiment was initiated by adding test compounds to the apical (75 μL) side. Transport plates were incubated at 37° C. in a humidified incubator with 5% CO2. Samples were taken from the donor and acceptor compartments after 1 hr and analyzed by liquid chromatography with tandem mass spectrometry (LC/MS/MS).
Apparent permeability (Papp) values were calculated using the following equation: Papp=(dQ/dt)/A/C0
where dQ/dt is the initial rate of amount of test compound transported across cell monolayer, A is the surface area of the filter membrane, and C0 is the initial concentration of the test compound. C0 is calculated for each condition using a 4-point calibration curve.
Absorption quotient between the two assay conditions was calculated by the following equation:
Absorption quotient (AQ)=(Papp, A-B with inhibitor−Papp, A-B without inhibitor)/Papp, A-B with inhibitor where Papp, A-B with inhibitor and Papp, A-B without inhibitor represent the apparent permeability of test compound from the apical to basal side of the cellular monolayer in the presence and absence of 10 μM P-gp inhibitor GF120918, respectively.
All samples were analyzed on LC/MS/MS using an AB Sciex API 4000 instrument, coupled to a Shimadzu LC-20AD LC Pump system. Analytical samples were separated using a Waters Atlantis T3 dC18 reverse phase HPLC column (10 mm×2.1 mm) at a flow rate of 0.5 mL/min. The mobile phase consisted of 0.1% formic acid in water (solvent A) and 0.1% formic acid in acetonitrile (solvent B).

[2] = Metabolic stability in simulated gastric fluid (SGF), pH 1.2, with or without pepsin; format: in vitro ADME; settings: 5 μM, 37° C.
Protocol: as §1
Buffer 1=SGF without enzyme
Buffer 2=SGF with 0.32% pepsin
as §2, §3, §4, §5, §6

[3] = format: in vivo, rat
Protocol: • 1. Eight (8) male JVC SD rats (purchased from Charles River Lab) were monitored daily for body condition and health status during the 3-5 days acclimation period. The rats were randomly assigned into […] (n=4). • 2. […] The dosed rats were individually placed into a metabolic cage, and have access to food and water at all times. The urine from each rat was collected daily from the metabolic cages, and kept in dry ice. • 4. At predose (0 min), 5 min, 15 min, 30 min, 1 hr, 2 hr, 8 hr, and 24 hr post dosing, approximately 200 ul blood samples were collected from each rat and transferred to EDTA tubes. • 5. The blood samples in EDTA vials were centrifuged at 4° C. and 6,000 rpm for 10 minutes to generate ˜100 μl of plasma per sample. Blood samples were processed as quickly as possible and remain no longer than 2 min at room temperature and no longer than 15 minutes at 4° C. prior to processing. • 6. All samples were transferred for bioanalytic assay using LCMS

[4] = Rat, PO, 10 mg/kg equiv., n = 4, analyte: Parent (BASE STRUCTURE)
[5] = Rat, PO, 10 mg/kg equiv., n = 4, analyte: Prodrug
[6] = rat, dosed as prodrug, 10 mg/kg equivalent of Base Structure, analyte Parent (Base Structure), Average
[7] = rat, dosed as prodrug, 10 mg/kg equivalent of Base Structure, analyte Parent (Base Structure), Combined (average ± std. dev.)
[8] = rat, dosed as prodrug, 10 mg/kg equivalent of Base Structure, analyte Parent (Base Structure), individual animals, 10 mg/kg
[9] = rat, dosed as prodrug, 10 mg/kg equivalent of Base Structure, analyte Prodrug, Average
[10] = rat, dosed as prodrug, 10 mg/kg equivalent of Base Structure, analyte Prodrug, Combined (average ± std. dev.)
[11] = rat, dosed as prodrug, 10 mg/kg equivalent of Base Structure, analyte Prodrug, individual animals, 10 mg/kg

With `CCCCCC(=O)NC(Cc1ccc(OP(=O)(OCCN(C)C)OCCN(C)C)cc1)C(=O)NC(C(=O)NCCCCCC(N)=O)C(C)CC` (stereo not shown) [Compound A18] the “SIF Stability (pH 6.8) Half-Life (min)” value ([1]; +Pancreatin (1%)) was 39.4 min, the “SIF Stability (pH 6.8) 0 min” value ([1]; +Pancreatin (1%)) was 100% and the “SIF Stability (pH 6.8) 60 min” value ([1]; +Pancreatin (1%)) was 40%. The “SIF Stability (pH 6.8) 120 min” value ([1]; +Pancreatin (1%)) was 12%, the “SIF Stability (pH 6.8) 240 min” value ([1]; +Pancreatin (1%)) was 25% and the “SIF Stability (pH 6.8) Half-Life (min)” value ([1]; −Pancreatin) was 30.2 min. For the same compound, the “SIF Stability (pH 6.8) 0 min” value ([1]; −Pancreatin) was 100%, the “SIF Stability (pH 6.8) 60 min” value ([1]; −Pancreatin) was 25% and the “SIF Stability (pH 6.8) 120 min” value ([1]; −Pancreatin) was 17%. The “SIF Stability (pH 6.8) 240 min” value ([1]; −Pancreatin) was 8%, the “Abs. Quotient” value (Caco-2 cells; (Papp A-B with inhibitor − without inhibitor)/Papp A-B with inhibitor) was 0.54 and the “Caco-2 Cells Permeability Recovery Rate” value (Caco-2 cells; +GF120918 (10 μM), 10 μM compound) was 90%. For the same compound, the “Caco-2 Cells Permeability Recovery Rate” value (Caco-2 cells; −GF120918, 10 μM compound) was 48%, the “SGF Stability (pH 1.2) Half-Life (min)” value ([2]; +Pepsin (0.32%)) was 46.4 min and the “SGF Stability (pH 1.2) 0 min” value ([2]; +Pepsin (0.32%)) was 100%. For the same compound, the “SGF Stability (pH 1.2) 60 min” value ([2]; +Pepsin (0.32%)) was 52%, the “SGF Stability (pH 1.2) 120 min” value ([2]; +Pepsin (0.32%)) was 17% and the “SGF Stability (pH 1.2) 240 min” value ([2]; +Pepsin (0.32%)) was 18%. For the same compound, the “SGF Stability (pH 1.2) Half-Life (min)” value ([2]; −Pepsin) was 42.6 min, the “SGF Stability (pH 1.2) 0 min” value ([2]; −Pepsin) was 100% and the “SGF Stability (pH 1.2) 60 min” value ([2]; −Pepsin) was 51%. For the same compound, the “SGF Stability (pH 1.2) 120 min” value ([2]; −Pepsin) was 14%, the “SGF Stability (pH 1.2) 240 min” value ([2]; −Pepsin) was 15% and the “AUC0-24” value [3, 4] was 4.1 ± 3.8 ng·h/mL. The “AUC0-inf (ng · h/mL)” value [3, 4] was 6.8 ± 4^ ng · h/mL, the “Cmax” value [3, 4] was 3.1 ± 2.5 ng/mL and the “Tmax” value [3, 4] was 0.2 ± 0.1 h. For the same compound, the “half-life” value [3, 4] was 3.5 ± 2.6 h, the “AUC0-24” value [3, 5] was 4.9 ± 2.6 ng·h/mL and the “Cmax” value [3, 5] was 3.8 ± 0.1 ng/mL. For the same compound, the “Tmax” value [3, 5] was 1.5 ± 0.7 h, the “AUC 0-inf_obs” value [3, 6] was 6.838 ng·h/mL and the “AUC 0-t” value [3, 6] was 4.14 ng·h/mL. For the same compound, the “AUMC 0-inf_obs” value [3, 6] was 46.7 ng/ml * h^2, the Cl/F_obs [3, 6] was 1.944 (mg/kg)/(ng/ml)/h and the Cmax [3, 6] was 3.14 ng/mL. For the same compound, the Lambda_z [3, 6] was 0.523 h⁻¹, the “MRT 0-inf_obs” value [3, 6] was 5.185 h and the Tlag [3, 6] was 0 h. The Tmax [3, 6] was 0.165 h, the Vz/F_obs [3, 6] was 6.707 (mg/kg)/(ng/ml) and the t1/2 [3, 6] was 3.49 h. The “AUC 0-inf_obs” value [3, 7] was 6.8 ± 4 ng·h/mL, the “AUC 0-t” value [3, 7] was 4.1 ± 3.8 ng·h/mL and the “AUMC 0-inf_obs” value [3, 7] was 46.7 ± 47.2 ng/ml * h^2. The Cl/F_obs [3, 7] was 1.9 ± 1.1 (mg/kg)/(ng/ml)/h, the Cmax [3, 7] was 3.1 ± 2.5 ng/mL and the Lambda_z [3, 7] was 0.5 ± 0.7 h⁻¹. For the same compound, the “MRT 0-inf_obs” value [3, 7] was 5.2 ± 3.9 h, the Tlag [3, 7] was 0 ± 0 h and the Tmax [3, 7] was 0.2 ± 0.1 h. The Vz/F_obs [3, 7] was 6.7 ± 3.2 (mg/kg)/(ng/ml), the t1/2 [3, 7] was 3.5 ± 2.6 h and the Tlag ([3]; rat, dosed as prodrug, 10 mg/kg equivalent of Base Structure, analyte Parent (Base Structure), individual animals) was 0 h. For the same compound, the “AUC 0-inf_obs” value [3, 8] was 3.49 ng·h/mL and 3.404 ng·h/mL and 9.232 ng·h/mL and 11.23 ng·h/mL, the “AUC 0-t” value [3, 8] was 1.664 ng·h/mL and 3.218 ng·h/mL and 1.903 ng·h/mL and 9.777 ng·h/mL and the “AUMC 0-inf_obs” value [3, 8] was 10.68 ng/ml * h^2 and 2.586 ng/ml * h^2 and 76.05 ng/ml * h^2 and 97.48 ng/ml * h^2. The Cl/F_obs [3, 8] was 2.866 (mg/kg)/(ng/ml)/h and 2.938 (mg/kg)/(ng/ml)/h and 1.083 (mg/kg)/(ng/ml)/h and 0.8908 (mg/kg)/(ng/ml)/h, the Cmax [3, 8] was 1.3 ng/mL and 3.37 ng/mL and 1.27 ng/mL and 6.62 ng/mL and the Lambda_z [3, 8] was 0.3303 h⁻¹ and 1.518 h⁻¹ and 0.1231 h⁻¹ and 0.1201 h⁻¹. For the same compound, the “MRT 0-inf_obs” value [3, 8] was 3.06 h and 0.7598 h and 8.238 h and 8.683 h, the Tmax [3, 8] was 0.25 h (2×) and 0.08 h (2×) and the Vz/F_obs [3, 8] was 8.676 (mg/kg)/(ng/ml) and 1.935 (mg/kg)/(ng/ml) and 8.802 (mg/kg)/(ng/ml) and 7.417 (mg/kg)/(ng/ml). For the same compound, the t1/2 [3, 8] was 2.099 h and 0.4565 h and 5.632 h and 5.771 h, the “AUC 0-t” value [3, 9] was 4.949 ng·h/mL and the Cmax [3, 9] was 3.76 ng/mL. For the same compound, the Tlag [3, 9] was 0 h, the Tmax [3, 9] was 1.5 h and the “AUC 0-t” value [3, 10] was 4.9 ± 2.6 ng·h/mL. For the same compound, the Cmax [3, 10] was 3.8 ± 0.1 ng/mL, the Tlag [3, 10] was 0 ± 0 h and the Tmax [3, 10] was 1.5 ± 0.7 h. The Tlag ([3]; rat, dosed as prodrug, 10 mg/kg equivalent of Base Structure, analyte Prodrug, individual animals) was 0 h, the “AUC 0-t” value [3, 11] was 6.8 ng·h/mL and 3.099 ng·h/mL and the Cmax [3, 11] was 3.84 ng/mL and 3.68 ng/mL. For the same compound, the Tmax [3, 11] was 2 h and 1 h.
